The values below come from patent US10780061B2, “Composition comprising farnesol and use thereof” (Daegu Gyongbuk Institute of Science and Technology, priority 2014, dated 2020).

For data set [1] the following is noted: for reference; cited from earlier work.
Data set [2] has as its system Myh2a-positive muscle fibers. Put plainly: Myh2a immunostaining of hind limb muscles, high fat diet (PGC-1α-inhibited) model. In kind it is in vivo, mouse. Particulars: high fat diet with 0.5% compound, 3 months. From the text: (§1) To prepare the PGC-1α-inhibited model, 3-month-old mouse (female, body weight of 20 g) is fed with high fat diet, in which fat is increased to 60%, compared to a negative control group, for 5 days (short-term effect) or 3 months (long-term effect). The negative control group is fed with a general diet. Farnesol is mixed in the high fat diet at a content of 0.5% (weight of farnesol/weight of diet). A positive control group is fed with high fat diet containing a type II diabetes drug, metformin at a content of 0.5% (weight of metformin/weight of diet). Mice are fed with the general diet, the high fat diet, and the high fat diet containing farnesol or metformin for 3 months, and then hind limbs are removed to analyze muscle differentiation and mitochondrial enzyme activity.
In FIG. 6C, SD represents a standard diet as a negative control group, HFD represents a high fat diet, and HFD+Farnesol or HFD-metformin represents farnesol or metformin-added HFD, respectively.

A further data set concerns SDH enzyme activity. In words: SDH staining of hind limb muscles, high fat diet model. In kind it is in vivo, mouse. Particulars: high fat diet with 0.5% compound, 3 months.
From the text: as §1

Data set [3] concerns PARIS, PGC-1α. Put plainly: Immunoprecipitation for PGC-1α expression and PARIS-farnesylation, short-term high fat diet. Particulars: high fat diet with 0.5% compound, 5 days, gastrocnemius muscles. In kind it is in vivo, mouse.
From the text: as §1
The effects of high fat diet and farnesol and metformin on PGC-1α induction by PARIS-farnesylation are evaluated. To analyze effect of short-term high fat diet, mice are fed with the above conditions for 5 days. Immunoblotting of PGC-1α and PARIS in gastrocnemius muscles of the mice is performed.
In this regard, PARIS-farnesylation is normalized to the immunoprecipitated PARIS expression level.

Data set [4] deals with PARIS, PGC-1α. Put plainly: Western blotting of hind limb muscles, high fat diet for 3 months. Particulars: high fat diet with 0.5% compound. In kind it is in vivo, mouse.
From the text: as §1
(In western blotting, separated proteins are transferred to a membrane and probed.)

For the compound `CC(=O)Oc1ccccc1C(=O)O` [aspirin], the ID50 in data set [1] is 250 mg/kg.
As to `CN(C)C(=N)N=C(N)N` [metformin, reference compound], the “percentage of Myh2a-postive muscle fibers” value in data set [2] is reported as “significantly increases”. Also, the “percentage of muscle fibers showing increased SDH enzyme activity” value in the data set on SDH enzyme activity is recorded as “increased”. In the data set on PARIS, PGC-1α [3], the “reduction in PARIS-farnesylation by high fat diet” value was “inhibited” and the “reduction in PGC-1α expression by high fat diet” value is reported as “inhibited”. Besides, in the data set on PARIS, PGC-1α [4], the “decreased PGC-1α expression by high fat diet” value is reported as “inhibited” and the “increased PARIS level by high fat diet” value was “inhibited”.
